Like-named read-outs stand apart in the source and are kept apart here.
Key:
[1] = system: visceral hypersensitivity; parameters: species or system adult female Sprague Dawley rats; details: rat
[2] = system: castor oil induced diarrhoea; parameters: species or system male NMRI mice; details: mouse, sc
normal colon transit = system: normal colon transit; parameters: species or system male Sprague Dawley rats; details: rat

CC1(C)C2CCC(CCN3CCC4(CC3)C(=O)NCN4c3ccccc3)C1C2 (stereo not shown) [Example 1, 8-[2-(6,6-Dimethyl-bicyclo[3.1.1]hept-2-yl)-ethyl]-1-phenyl-1,3,8-triaza-spiro[4.5]decan-4-one]
In vivo agonism hypersensitivity max inhibition % of control ([1]; sc): 49 (s.c.) % of control

CNCCCCN1CN(c2ccccc2)C2(CCN(CCC3CCC4CC3C4(C)C)CC2)C1=O (stereo not shown) [Example 14]
In vivo agonism diarrhoea mean score % control [2]: 64 (s.c.) % control
In vivo agonism transit Mean retention time % control (normal colon transit; sc): 111 (s.c.) % control

CN(CCCN1CN(c2ccccc2)C2(CCN(CCC3CCC4CC3C4(C)C)CC2)C1=O)CC1(O)CCNCC1 (stereo not shown) [Example 37, 8-[2-(6,6-Dimethyl-bicyclo[3.1.1]hept-2-yl)-ethyl]-3-{3-[(4-hydroxy-piperidin-4-ylmethyl)-methyl-amino]-propyl}-1-phenyl-1,3,8-triaza-spiro[4.5]decan-4-one]
In vivo agonism hypersensitivity max inhibition % of control ([1]; sc): 34 (s.c.) % of control

CNCCCN1CN(c2ccccc2)C2(CCN(CCC3CCC4CC3C4(C)C)CC2)C1=O (stereo not shown) [Example 13, 8-[2-(6,6-Dimethyl-bicyclo[3.1.1]hept-2-yl)-ethyl]-3-(3-methylamino-propyl)-1-phenyl-1,3,8-triaza-spiro[4.5]decan-4-one]
In vivo agonism diarrhoea mean score % control [2]: 59 (s.c.) % control
In vivo agonism transit Mean retention time % control (normal colon transit; sc): 105 (s.c.) % control

CN(CCN1CN(c2ccccc2)C2(CCN(CCC3CCC4CC3C4(C)C)CC2)C1=O)C(c1ccco1)C(O)CO (stereo not shown) [Example 51]
In vivo agonism transit Mean retention time % control (normal colon transit; po): 105 (p.o.) % control
In vivo agonism transit Mean retention time % control (normal colon transit; sc): 102 (s.c.) % control
In vivo agonism hypersensitivity max inhibition % of control ([1]; po): 44 (p.o.) % of control
In vivo agonism hypersensitivity max inhibition % of control ([1]; sc): 45 (s.c.) % of control

Source: patent US7241770B2 (priority 2003, dated 2007)
